These results are taken from ChEMBL document CHEMBL3507680, “University of Dundee, Gates Library screen for HepG2 cell viability”.

A short description of the series: Human HepG2 cell viability assay in 384 well format. Set-up: dose 125 nL, time 70.5 hour; concentration not given beside the values. The series is classed as toxicity, cell-based. The following applies: HepG2 cells, read-out: Inhibition.
On to `CCc1ncc2c(n1)CN(c1nccc(C3CCCC3)n1)C2`, for which the cytotoxicity at 70.5 h was -10.9%.
As for `Cc1n[nH]c(C)c1Sc1ccccc1NC(=O)N1CCN(C)CC1`, the figure is 50.2%.
As for `CSCCC(=O)N1CCc2c(ncnc2N2CCOCC2)C1`, the figure is -2.83%.
As for `Cn1c(CN2CCN(c3cccnc3)CC2)cc2ccccc21`, the figure is -4.28%; as for `Cc1nc(N(C)C)ncc1C(=O)NCCc1csc(-c2cnccn2)n1`, -6.1%; as for `CSCCCN1C(=O)CC[C@H]2CN(Cc3ncc[nH]3)CC[C@H]21`, -5.45%.
For `COc1cccc(C(C(=O)O)N2CCC(Cn3cccn3)CC2)c1OC` (configuration not stated), the cytotoxicity at 70.5 h is -9.71%.
Turning to `Cc1cnc(N2CCC(c3ccncc3)CC2)nc1-c1ccnn1C`, the cytotoxicity at 70.5 h was -12.9%.
As for `COc1ccccc1OC1CCN(c2ccncc2)CC1`, the cytotoxicity at 70.5 h worked out at 12.9%.
For the molecule `O=C(Cc1ccc(O)c(F)c1)N1CCC2(CCNCC2)CC1`, the cytotoxicity at 70.5 h is -1.13%.
With `CCn1cc(CN2CCCC(COc3ccc(F)cc3)C2)cn1` (configuration not stated) the figure was 12.1%.
As for `CCC(NC1CCN(C(=O)c2ccccc2)CC1)c1cccs1` (configuration not stated), the figure is -16.9%; as for `CN1CCC(n2nc(Cc3cccs3)nc2-c2ccncc2)CC1`, 2.89%; as for `Cc1cc(C(=O)N2CCC3(CC2)c2nc[nH]c2CCN3CC(C)C)no1`, 7%.
As for `CN(C)C1CCCN(C(=O)c2cccc(-c3ncc[nH]3)c2)CC1` (configuration not stated), the figure is -1.63%; as for `CNC(=O)C1CCCN(c2nc(-c3ccco3)nc3c2CCNCC3)C1` (configuration not stated), -4.06%; as for `O=C(c1ccc2nccnc2c1)N1C[C@@H](CN2CCCC2)[C@@H](CO)C1`, -5.28%.
For the molecule `CN1CCN(c2ncccn2)CC12CCC(=O)N(CC1CC1)CC2` (configuration not stated), the cytotoxicity at 70.5 h came to 9.35%.
As for `CN(Cc1ccoc1)C(=O)C1(Oc2ccc(Cl)cc2)CCNCC1`, the figure is -6.31%.
With `CCC(=O)N1CCN(C(=O)c2cn3ccsc3n2)[C@H]2CS(=O)(=O)C[C@H]21` the figure was -13.8%.
As to `CN1CC2(CCCN(C(=O)Cc3cccc(O)c3)C2)OC1=O` (configuration not stated), the cytotoxicity at 70.5 h was -6.74%.
With `CC(C)N(C)C(=O)C1CCC(=O)N(CCc2cccc(F)c2)C1` (configuration not stated) the figure was -3.96%.
With `Cc1[nH]c(-c2ccccc2)nc1C(=O)N1CCC(O)(CO)CC1` the figure was 17.9%; with `CCC1CC(=O)NCc2nc3sc(C)cn3c21` (configuration not stated), -4.35%.
With `CC(C)N(C)C(=O)c1coc(CN2CCN(c3ccccc3F)CC2)n1` the figure was -3.77%.
Consider `CC(C)Nc1ccnc(-c2ccnc3c2ccn3C)n1`, for which the cytotoxicity at 70.5 h was -9.28%.
As for `COCCN1CC(C(=O)N(C)Cc2cc(-c3cccnc3)no2)CC1=O` (configuration not stated), the cytotoxicity at 70.5 h is -11.9%.
With `CCN(CC)C1CCN(c2ncnc3c2CCN(C(=O)C2CC2)C3)C1` (configuration not stated) the figure was -2.79%; with `Cc1occc1C(=O)Nc1ccc(C(=O)NC[C@H]2CCCN2)cc1`, 7%.
With `CCn1nc(CC(C)C)cc1C(=O)NCCCN1CCOCC1` the figure was -0.263%; with `Cc1n[nH]c(SCC(=O)N[C@@H](C)C(N)=O)n1`, 0.227%; with `O=C(c1ccc(-c2nc[nH]n2)cc1)N1CC[C@H](CO)[C@@H](O)C1`, -10.8%.
Take `Cc1ccc(C(C(=O)NCCN2CCCCCC2)N(C)C)cc1` (configuration not stated): the cytotoxicity at 70.5 h was determined as 5.23%.
As for `Cc1cccc(C2CCCN(C(=O)CN3CCCC3=O)C2)c1` (configuration not stated), the figure is -21.9%.
With `Cc1cc(C)n(CCN(C)Cc2c[nH]nc2-c2ccc3c(c2)OCO3)n1` the figure was -5.98%; with `CC(C)OC(=O)N1C[C@H]2CC[C@@H]1CN(Cc1cccnc1)C2`, -3.17%; with `CN1CCN(Cc2noc(CCc3nc(-c4ccccc4)no3)n2)CC1`, -6.63%.
With `O=C(Nc1nc(-c2ccccc2)ns1)N1CCC(F)CC1` the figure was -3.26%; with `NCc1n[nH]c(=O)n1-c1ccccc1Oc1ccccc1`, 9.56%.
On to `CC(C)(C)c1ncc2c(n1)CN(C(=O)c1ccc(C#N)nc1)C2`, for which the cytotoxicity at 70.5 h came out at 11.4%.
As for `O=C(CCc1n[nH]c2c1CCCC2)N1C[C@@H]2CC[C@H](C1)N(CC1CC1)C2`, the cytotoxicity at 70.5 h is -7.45%.
As for `Cc1cc2ccccc2n1CCC(=O)NCCN(C)S(C)(=O)=O`, the cytotoxicity at 70.5 h was -13.9%.
As for `CN(C)C(C(=O)N1CCN(CCn2cccc2)CC1)c1cccc(F)c1` (configuration not stated), the figure is 2.13%; as for `O=C(O)[C@@H]1CN(C(=O)CSCCN2CCCC2)C[C@H]1c1ccccc1`, 1.16%; as for `COCC(=O)N1CCCN(Cc2cc(O)c3ccccc3n2)CC1`, -9.45%.
As for `O=C(c1ccc(-c2ccsc2)nc1)N1CCCN(C2CCCCC2)CC1`, the figure is 17%.
As for `COc1ccc2cc(C3CN(C(=O)CN4CCCC4)CCO3)ccc2c1` (configuration not stated), the figure is 2.28%; as for `CN(Cc1cc(C2CC2)[nH]n1)C(=O)c1cnn2ccn(C)c12`, -10.4%.
As for `CC(C)(N)c1cn([C@@H]2c3ccccc3C3(CCNCC3)[C@H]2O)nn1`, the cytotoxicity at 70.5 h was -4.25%.
With `Cc1nnnn1-c1ccc(CC(=O)N2CCOCC(O)C2)cc1` (configuration not stated) the figure was -6.4%.
Take `COC(=O)c1ccc(CNC2CC(=O)N(Cc3cccc(F)c3)C2)cc1` (configuration not stated): the cytotoxicity at 70.5 h came to 0.023%.
With `Cc1ccccc1SC1CCN(C(=O)[C@@H]2C[C@@H](N)CN2)CC1` the figure was -2.11%.
With `Cc1ccc(NCCCNC(=O)C2CC3(CCNCC3)CN2C)nc1` (configuration not stated) the figure was -10.5%.
With `CCc1nc(CN(C)C(=O)CSC)no1` the figure was -11.3%; with `CCc1cc(N(C)CCCO)n2nccc2n1`, -4.76%; with `CSc1cccc(CN2CCC(CCC(=O)NCCN(C)C)CC2)c1`, -6.05%.
In the case of `CCN(Cc1ccccn1)Cc1cc(Cl)ccc1OC`, the cytotoxicity at 70.5 h was determined as 2.41%.
As for `CCN(C)S(=O)(=O)NCC1CCN(Cc2ccccc2F)C1` (configuration not stated), the figure is -10.5%; as for `CCC1CN(C(=O)c2ccccc2N(C)C)CCN1C(C)C` (configuration not stated), 1.87%.
For the molecule `COCc1cn(C2CCN(C(=O)c3ccc(F)c(C)c3)CC2)nn1`, the cytotoxicity at 70.5 h is -6.36%.
Regarding `O=C(NCc1c(F)cccc1Cl)c1cc(CN2CCCC(O)C2)on1` (configuration not stated), the cytotoxicity at 70.5 h is -13.8%.
With `O=c1cc(N2CCc3ccccc3C2)cnn1CCC1CCOC1` (configuration not stated) the figure was 1.4%.
With `COCCN(C)CC(=O)N1C[C@@H](NC(C)=O)[C@H](c2ccc(OC)cc2)C1` the figure was -17.6%; with `CCN(CC)C(=O)[C@@H]1C[C@H](N)CN1c1nnc(-c2ccccc2)s1`, 18.2%.
With `Cc1nc(C(C)NC(=O)c2cn(Cc3ccc(Cl)cc3)nn2)n[nH]1` (configuration not stated) the figure was -1.77%; with `OCCC1CN(c2nc(-c3ccncc3)nc3c2CCNCC3)CCO1` (configuration not stated), 2.55%.
Turning to `CN1CCCC(CCC(=O)N2CCc3[nH]c(-c4ccccc4)nc3C2)C1` (configuration not stated), the cytotoxicity at 70.5 h worked out at 20.8%.
As for `Cc1n[nH]c(C)c1CC(=O)N1CCN(C)C2(CCNC(=O)CC2)C1` (configuration not stated), the figure is -4.03%; as for `O=C1[C@@H]2CN(c3ncnc4[nH]ccc34)C[C@]2(C(=O)O)CN1CC1CC1`, -9.8%.
With `O=C(NCCn1cccc1)C1CCCN(C2CCCC2)C1` (configuration not stated) the figure was 7.15%.
As for `CCCC(C)NCc1cccnc1N1CCN(c2ccccn2)CC1` (configuration not stated), the figure is -5.62%; as for `Cc1[nH]c(-c2ccccc2)nc1C(=O)N1CCc2[nH]cnc2C1C(=O)O` (configuration not stated), -8.84%; as for `CCCOC(=O)NCCC1CN(c2cnn(C)c(=O)c2)CCO1` (configuration not stated), -10.5%.
With `COCCC1(CO)CCCN(Cc2cc(C(F)(F)F)ccc2F)C1` (configuration not stated), the cytotoxicity at 70.5 h was -1.42%.
With `O=C(COc1cccc(F)c1)N1C[C@@H](CN2CCCC2)C[C@H](CO)C1` the figure was 0.446%; with `COc1ccc2c(c1)OCC(CNC(=O)c1cc[nH]c1C)C2` (configuration not stated), -19.4%; with `CCNC(=O)[C@@H]1C[C@H](N)CN1C(=O)C1(c2ccc(OC)cc2)CCCC1`, -10.3%.
As for `CCn1cc(CN2CCC(NS(C)(=O)=O)CC2)cc1C#N`, the figure is -3.22%.
As for `O=C(NCCCOC1CCCCC1)C1NCCc2[nH]cnc21` (configuration not stated), the figure is -3.08%; as for `CO[C@H]1CN(Cc2c(C)ccc3ncccc23)CC[C@H]1N`, 2.94%.
In the case of `CCn1cnnc1Cc1nc2c([nH]1)CC(c1ccc(Cl)cc1)CNC2=O` (configuration not stated), the cytotoxicity at 70.5 h was 6.53%.
As for `COc1ncc(C(=O)N2CCCC3(C=Cc4ccccc4O3)CC2)cn1` (configuration not stated), the figure is 13.5%; as for `COc1nc2c(cc1C(=O)N1CCCOC(CN3CCCC3)C1)CCC2` (configuration not stated), -13.7%; as for `Cc1ccc(C(=O)N2CCC3(CCC(=O)N(CCCO)C3)CC2)c(O)c1`, -8.79%.
With `Cc1cccnc1CCNCC1(O)CCCN(CC2CCCCC2)C1=O` (configuration not stated) the figure was 35.9%.
With `COCc1cc(N2C[C@@H](C)[C@](O)(C3CC3)C2)ncn1` the figure was 0.518%.
`COC1CCCN(CCCc2cn[nH]c2)C1` (configuration not stated): the cytotoxicity at 70.5 h is 0.195%.
With `COc1ccc(C(=O)N2CC[C@@H](N3CCC(O)CC3)[C@H](O)C2)cc1C` the figure was -3.31%; with `Cc1ccoc1C(=O)N1CCC(n2cc(-c3ccsc3)nn2)CC1`, -12.5%.
With `CCN(CC)CCn1cnc(-c2ccccc2)c1-c1cnn(CC)c1` the figure was -10.7%; with `CC(=O)N[C@@H]1CN(CC(=O)NCc2ccccc2C)C[C@H]1C(C)C`, -6.75%; with `C=C(C)COc1cccc(CNC(CC(C)C)c2ncnn2C)c1` (configuration not stated), -3.16%.
As for `COc1cccc(CN(C)Cc2[nH]c3ccccc3c2C)c1O`, the figure is 1.38%.
In the case of `Cc1ccc(CN(Cc2ccncc2)C2CCN(C)CC2)s1`, the cytotoxicity at 70.5 h turned out to be 15.5%.
As for `CSc1cccc(CNC(=O)[C@H]2CNC[C@@H](C(=O)N3CCOCC3)C2)c1`, the figure is -4.8%.
As for `NC(=O)c1csc(N2CCCC(c3nc4ccccc4[nH]3)C2)n1` (configuration not stated), the figure is -2.59%.
As for `CC(C)(C)N1CC(c2ncc(-c3ccc4c(c3)OCCO4)[nH]2)CC1=O` (configuration not stated), the figure is -2.24%.
